Key:
JH2 domain of human Tyk2 = JH2 domain of human Tyk2 (Homo sapiens (Human), UniProt P29597); test: JH2 Biochemical Assay (TR-FRET probe displacement); type: binding
Tyk2 = Tyk2 (Homo sapiens (Human), UniProt P29597); test: pSTAT4 Cell Assay (MSD, NK92 cells); type: cell-based; settings: MSD
[1] = TR-FRET probe displacement, JH2 domain of human Tyk2
[2] = JH2 domain of human Tyk2, TR-FRET probe displacement

Chain of Tyk2 (P29597 whole entry, the tested form may be a part): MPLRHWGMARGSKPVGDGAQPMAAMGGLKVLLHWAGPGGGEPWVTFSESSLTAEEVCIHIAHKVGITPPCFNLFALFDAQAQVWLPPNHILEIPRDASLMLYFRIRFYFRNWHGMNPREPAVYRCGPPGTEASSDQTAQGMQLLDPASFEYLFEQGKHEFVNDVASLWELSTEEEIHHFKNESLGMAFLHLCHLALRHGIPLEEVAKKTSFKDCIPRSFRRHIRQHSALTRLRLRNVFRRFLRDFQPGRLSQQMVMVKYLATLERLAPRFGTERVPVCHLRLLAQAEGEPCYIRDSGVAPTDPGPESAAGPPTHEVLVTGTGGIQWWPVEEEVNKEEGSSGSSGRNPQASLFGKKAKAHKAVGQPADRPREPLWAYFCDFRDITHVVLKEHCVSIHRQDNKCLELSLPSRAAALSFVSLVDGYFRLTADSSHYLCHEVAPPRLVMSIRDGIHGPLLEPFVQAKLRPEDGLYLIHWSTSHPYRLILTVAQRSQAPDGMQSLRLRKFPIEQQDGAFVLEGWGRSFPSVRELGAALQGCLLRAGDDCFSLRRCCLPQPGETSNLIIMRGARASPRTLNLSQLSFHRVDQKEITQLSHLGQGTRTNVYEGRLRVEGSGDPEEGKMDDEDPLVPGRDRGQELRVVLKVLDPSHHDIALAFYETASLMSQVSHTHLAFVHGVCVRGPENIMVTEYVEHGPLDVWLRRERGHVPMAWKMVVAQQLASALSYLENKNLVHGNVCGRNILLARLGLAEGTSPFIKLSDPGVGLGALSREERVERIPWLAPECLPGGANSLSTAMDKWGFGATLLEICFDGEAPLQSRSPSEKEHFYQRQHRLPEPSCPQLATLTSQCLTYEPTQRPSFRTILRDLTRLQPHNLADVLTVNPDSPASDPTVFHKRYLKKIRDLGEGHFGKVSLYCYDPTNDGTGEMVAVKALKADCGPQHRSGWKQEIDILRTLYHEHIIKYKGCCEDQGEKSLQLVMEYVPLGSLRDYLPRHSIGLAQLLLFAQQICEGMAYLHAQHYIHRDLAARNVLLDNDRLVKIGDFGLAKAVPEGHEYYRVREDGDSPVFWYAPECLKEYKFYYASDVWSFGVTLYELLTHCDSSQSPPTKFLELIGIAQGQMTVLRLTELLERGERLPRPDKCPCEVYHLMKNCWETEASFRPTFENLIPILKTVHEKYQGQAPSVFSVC
Chain of JH2 domain of human Tyk2 (P29597 575-876): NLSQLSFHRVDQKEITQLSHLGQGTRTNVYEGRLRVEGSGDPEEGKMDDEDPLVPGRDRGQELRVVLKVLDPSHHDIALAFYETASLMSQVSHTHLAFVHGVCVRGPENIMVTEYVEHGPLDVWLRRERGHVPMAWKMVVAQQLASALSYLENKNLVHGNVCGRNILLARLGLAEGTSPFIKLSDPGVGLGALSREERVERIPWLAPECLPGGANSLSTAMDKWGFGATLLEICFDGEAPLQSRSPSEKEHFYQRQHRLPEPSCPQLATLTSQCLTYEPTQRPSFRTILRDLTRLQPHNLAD

COc1cnc(Oc2cnc(NC(C)=O)cc2Nc2cc(C)nc(C(C)(F)F)n2)cn1 [Example 356, N-(4-((2-(1,1-difluoroethyl)-6-methylpyrimidin-4-yl)amino)-5-((5-methoxypyrazin-2-yl)oxy)pyridin-2-yl)acetamide] was tested, and the IC50 (JH2 domain of human Tyk2; [1]) was ≥ 1000 nM and the IC50 (Tyk2) was ≥ 1000 nM.
For COc1cncc(Oc2cnc(NC(C)=O)cc2Nc2cc(C)nc(C(C)(F)F)n2)n1 [Example 357, N-(4-((2-(1,1-difluoroethyl)-6-methylpyrimidin-4-yl)amino)-5-((6-methoxypyrazin-2-yl)oxy)pyridin-2-yl)acetamide], the IC50 (JH2 domain of human Tyk2; [1]) was 10 to 100 nM and the IC50 (Tyk2) was ≥ 1000 nM.
For CC(=O)Nc1cc(Nc2cc(C)nc(C(C)(F)F)n2)c(Oc2ccnc(C(F)(F)F)n2)cn1 [Example 359, N-(4-((2-(1,1-difluoroethyl)-6-methylpyrimidin-4-yl)amino)-5-((2-(trifluoromethyl)pyrimidin-4-yl)oxy)pyridin-2-yl)acetamide], the IC50 (JH2 domain of human Tyk2; [1]) was ≥ 1000 nM and the IC50 (Tyk2) was ≥ 1000 nM.
In the case of [2H]C([2H])([2H])C([2H])([2H])Oc1cnc(NC(C)=O)cc1Nc1cc(-c2cnn(C(C)C)c2)nc(C(C)(F)F)n1 [Example 361, N-(4-((2-(1,1-difluoroethyl)-6-(1-isopropyl-1H-pyrazol-4-yl)pyrimidin-4-yl)amino)-5-(ethoxy-d5)pyridin-2-yl)acetamide], the IC50 (JH2 domain of human Tyk2; [1]) is reported as ≤ 10 nM and the IC50 (Tyk2) is reported as ≤ 10 nM.
COc1cnc(NC(C)=O)cc1Nc1cc(-c2cnn(C(C)C)c2)nc(C(C)(F)F)n1 [Example 363, N-(4-((2-(1,1-difluoroethyl)-6-(1-isopropyl-1H-pyrazol-4-yl)pyrimidin-4-yl)amino)-5-methoxypyridin-2-yl)acetamide] was tested, and the IC50 (JH2 domain of human Tyk2; [1]) was ≤ 10 nM and the IC50 (Tyk2) was ≤ 10 nM.
For CC(=O)Nc1cc(Nc2cc(C(C)C)nc(C(C)(F)F)n2)c(OCc2ccccn2)cn1 [Example 365, N-(4-((2-(1,1-difluoroethyl)-6-isopropylpyrimidin-4-yl)amino)-5-(pyridin-2-ylmethoxy)pyridin-2-yl)acetamide], the IC50 (JH2 domain of human Tyk2; [1]) was ≤ 10 nM and the IC50 (Tyk2) was ≤ 10 nM.
For COCCOc1cnc(NC(C)=O)cc1Nc1cc(-c2cnn(C(C)C)c2)nc(C(C)(F)F)n1 [Example 366, N-(4-((2-(1,1-difluoroethyl)-6-(1-isopropyl-1H-pyrazol-4-yl)pyrimidin-4-yl)amino)-5-(2-methoxyethoxy)pyridin-2-yl)acetamide], the IC50 (JH2 domain of human Tyk2; [1]) was ≤ 10 nM and the IC50 (Tyk2) was ≤ 10 nM.
For CCOc1cnc(NC(C)=O)cc1Nc1cc(-c2cncc(C)c2)nc(C(C)(F)F)n1 [Example 367, N-(4-((2-(1,1-difluoroethyl)-6-(5-methylpyridin-3-yl)pyrimidin-4-yl)amino)-5-ethoxypyridin-2-yl)acetamide], the IC50 (JH2 domain of human Tyk2; [1]) was ≤ 10 nM and the IC50 (Tyk2) was 10 to 100 nM.
In the case of CCOc1cnc(NC(C)=O)cc1Nc1cc(-c2ccc(CC)nc2)nc(C(C)(F)F)n1 [Example 368, N-(4-((2-(1,1-difluoroethyl)-6-(6-ethylpyridin-3-yl)pyrimidin-4-yl)amino)-5-ethoxypyridin-2-yl)acetamide], the IC50 (JH2 domain of human Tyk2; [1]) is reported as ≤ 10 nM and the IC50 (Tyk2) is reported as ≤ 10 nM.
With CCOc1cnc(NC(C)=O)cc1Nc1cc(-c2ccc(OC)nc2)nc(C(C)(F)F)n1 [Example 369, N-(4-((2-(1,1-difluoroethyl)-6-(6-methoxypyridin-3-yl)pyrimidin-4-yl)amino)-5-ethoxypyridin-2-yl)acetamide] the IC50 (JH2 domain of human Tyk2; [1]) was ≤ 10 nM and the IC50 (Tyk2) was 10 to 100 nM.
In the case of CCOc1cnc(NC(C)=O)cc1Nc1cc(-c2cncc(OC)c2)nc(C(C)(F)F)n1 [Example 370, N-(4-((2-(1,1-difluoroethyl)-6-(5-methoxypyridin-3-yl)pyrimidin-4-yl)amino)-5-ethoxypyridin-2-yl)acetamide], the IC50 (JH2 domain of human Tyk2; [2]) is reported as ≤ 10 nM and the IC50 (Tyk2) is reported as 10 to 100 nM.
With CCOc1cnc(NC(C)=O)cc1Nc1cc(-c2cnn(CC(C)C)c2)nc(C(C)(F)F)n1 [Example 371, N-(4-((2-(1,1-difluoroethyl)-6-(1-isobutyl-1H-pyrazol-4-yl)pyrimidin-4-yl)amino)-5-ethoxypyridin-2-yl)acetamide] the IC50 (JH2 domain of human Tyk2; [2]) was ≤ 10 nM and the IC50 (Tyk2) was ≤ 10 nM.
For CCOc1cnc(NC(C)=O)cc1Nc1cc(Cl)nc(C(C)(F)F)n1 [Example 372, N-(4-((6-chloro-2-(1,1-difluoroethyl)pyrimidin-4-yl)amino)-5-ethoxypyridin-2-yl)acetamide], the IC50 (JH2 domain of human Tyk2; [2]) was ≤ 10 nM and the IC50 (Tyk2) was 10 to 100 nM.
For COc1cnc(NC(C)=O)cc1Nc1cc(-c2ccncc2F)nc(C(C)(F)F)n1 [Example 373, N-(4-((2-(1,1-difluoroethyl)-6-(3-fluoropyridin-4-yl)pyrimidin-4-yl)amino)-5-methoxypyridin-2-yl)acetamide], the IC50 (JH2 domain of human Tyk2; [2]) was ≤ 10 nM and the IC50 (Tyk2) was 10 to 100 nM.
For COc1cnc(NC(C)=O)cc1Nc1cc(-c2cnn(C3CCC3)c2)nc(C(C)(F)F)n1 [Example 374, N-(4-((6-(1-cyclobutyl-1H-pyrazol-4-yl)-2-(1,1-difluoroethyl)pyrimidin-4-yl)amino)-5-methoxypyridin-2-yl)acetamide], the IC50 (JH2 domain of human Tyk2; [2]) was 10 to 100 nM and the IC50 (Tyk2) was 100 to 1000 nM.
COc1cnc(NC(C)=O)cc1Nc1cc(-c2cnn(C(F)F)c2)nc(C(C)(F)F)n1 [Example 375, N-(4-((2-(1,1-difluoroethyl)-6-(1-(difluoromethyl)-1H-pyrazol-4-yl)pyrimidin-4-yl)amino)-5-methoxypyridin-2-yl)acetamide] gave an IC50 (JH2 domain of human Tyk2; [2]) of 10 to 100 nM and an IC50 (Tyk2) of 100 to 1000 nM.
With COc1cnc(NC(C)=O)cc1Nc1cc(-c2cnn(C3CC3)c2)nc(C(C)(F)F)n1 [Example 376, N-(4-((6-(1-cyclopropyl-1H-pyrazol-4-yl)-2-(1,1-difluoroethyl)pyrimidin-4-yl)amino)-5-methoxypyridin-2-yl)acetamide] the IC50 (JH2 domain of human Tyk2; [2]) was 10 to 100 nM and the IC50 (Tyk2) was 10 to 100 nM.
In the case of COc1cnc(NC(C)=O)cc1Nc1cc(-c2cnn(C3COC3)c2)nc(C(C)(F)F)n1 [Example 377, N-(4-((2-(1,1-difluoroethyl)-6-(1-(oxetan-3-yl)-1H-pyrazol-4-yl)pyrimidin-4-yl)amino)-5-methoxypyridin-2-yl)acetamide], the IC50 (JH2 domain of human Tyk2; [2]) is reported as 10 to 100 nM and the IC50 (Tyk2) is reported as 10 to 100 nM.
In the case of COc1cnc(NC(C)=O)cc1Nc1cc(-c2cnn(CC3CC3)c2)nc(C(C)(F)F)n1 [Example 378, N-(4-((6-(1-(cyclopropylmethyl)-1H-pyrazol-4-yl)-2-(1,1-difluoroethyl)pyrimidin-4-yl)amino)-5-methoxypyridin-2-yl)acetamide], the IC50 (JH2 domain of human Tyk2; [2]) is reported as ≤ 10 nM and the IC50 (Tyk2) is reported as 10 to 100 nM.
In the case of COc1cnc(NC(C)=O)cc1Nc1cc(-c2cnn(CCN3CCOCC3)c2)nc(C(C)(F)F)n1 [Example 379, N-(4-((2-(1,1-difluoroethyl)-6-(1-(2-morpholinoethyl)-1H-pyrazol-4-yl)pyrimidin-4-yl)amino)-5-methoxypyridin-2-yl)acetamide], the IC50 (JH2 domain of human Tyk2; [2]) is reported as ≤ 10 nM and the IC50 (Tyk2) is reported as 10 to 100 nM.
COc1cnc(NC(C)=O)cc1Nc1cc(-c2cnn(CCN(C)C)c2)nc(C(C)(F)F)n1 [Example 380, N-(4-((2-(1,1-difluoroethyl)-6-(1-(2-(dimethylamino)ethyl)-1H-pyrazol-4-yl)pyrimidin-4-yl)amino)-5-methoxypyridin-2-yl)acetamide] was tested, and the IC50 (JH2 domain of human Tyk2; [2]) was ≤ 10 nM and the IC50 (Tyk2) was 10 to 100 nM.
With COc1cnc(NC(C)=O)cc1Nc1cc(-c2cnn(CC(F)(F)F)c2)nc(C(C)(F)F)n1 [Example 381, N-(4-((2-(1,1-difluoroethyl)-6-(1-(2,2,2-trifluoroethyl)-1H-pyrazol-4-yl)pyrimidin-4-yl)amino)-5-methoxypyridin-2-yl)acetamide] the IC50 (JH2 domain of human Tyk2; [2]) was ≤ 10 nM and the IC50 (Tyk2) was 10 to 100 nM.

Reference: patent US20260028365A1 (BIOGEN MA INC., priority 2022, published 2026)
